Where a SMILES comes first, the peptide text is derived from it. Bridges are numbered along the chain shown (N, C = ends). Triazole bridges read from a SMILES are 1,4-linked. [ ]: non-standard residue; d: D form. ξ: configuration not given here. pY = N[C@@H](Cc1ccc(OP(=O)(O)O)cc1)C(=O)O; Lys(N3) = [N-]=[N+]=NCCCC[C@H](N)C(=O)O; Thr(3ξ) = CC(O)[C@H](N)C(=O)O; Pra = C#CC[C@H](N)C(=O)O
Target: T1, Signal transducer and activator of transcription 3 [127-722] (Mus musculus, UniProt P42227)
T1 construct: 127-722
Test: Fluorescence-Polarization-Based Binding Assay
Details: pH 7.5; 22 °C
From the text: Fluorescence polarization (FP) binding assay is utilizing the intrinsic property of the fluorescent probe, which will have low polarization value when free in solution. On binding to a target, the polarization of the probe will increase.

T1 sequence (P42227 127-722): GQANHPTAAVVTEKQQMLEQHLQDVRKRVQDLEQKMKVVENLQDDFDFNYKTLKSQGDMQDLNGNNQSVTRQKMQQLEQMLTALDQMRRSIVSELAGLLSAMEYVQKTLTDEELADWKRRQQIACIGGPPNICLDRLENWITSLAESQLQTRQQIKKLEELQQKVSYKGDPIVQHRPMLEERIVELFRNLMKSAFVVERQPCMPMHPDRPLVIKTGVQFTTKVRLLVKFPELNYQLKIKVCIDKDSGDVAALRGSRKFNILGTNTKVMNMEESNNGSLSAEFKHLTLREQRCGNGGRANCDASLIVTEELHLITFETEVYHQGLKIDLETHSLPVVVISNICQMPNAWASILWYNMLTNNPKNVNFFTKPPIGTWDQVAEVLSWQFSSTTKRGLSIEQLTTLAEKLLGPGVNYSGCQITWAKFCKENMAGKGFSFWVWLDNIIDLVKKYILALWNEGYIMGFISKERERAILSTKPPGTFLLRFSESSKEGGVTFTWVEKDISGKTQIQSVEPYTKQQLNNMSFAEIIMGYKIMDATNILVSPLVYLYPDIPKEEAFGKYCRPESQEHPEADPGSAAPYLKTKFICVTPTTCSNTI

| SMILES | Ki [µM] |
| --- | --- |
| CC(=O)N[C@@H](Cc1ccc(OP(=O)(O)O)cc1)C(=O)N[C@@H](CC(C)C)C(=O)N[C@@H](CCCCN)C(=O)N[C@H](C(=O)N[C@@H](CCCCN)C(=O)N[C@@H](Cc1ccccc1)C(N)=O)C(C)O (stereo partly drawn) [4-[(2S)-2-{[(1S)-1-{[(1S)-5-amino-1-{[(1S,2R)-1-{[(1S)-5-amino-1-{[(1S)-1-carbamoyl-2-phenylethyl]carbamoyl}pentyl]carbamoyl}-2-hydroxypropyl]carbamoyl}pentyl]carbamoyl}-3-methylbutyl]carbamoyl}-2-acetamidoethyl]phenoxyphosphonic acid] (HELM PEPTIDE1{[ac].[O=C([C@H](Cc1ccc(OP(=O)(O)O)cc1)N[*:1])[*:2]].L.K.[CC(O)[C@H](N[*:1])C(=O)[*:2]].K.F.[am]}$$$$V2.0) | 25.9 |
| CC(=O)N[C@@H](Cc1ccc(OP(=O)(O)O)cc1)C(=O)N[C@@H](CC(C)C)C(=O)N[C@H]1CCCCn2cc(nn2)C[C@@H](C(=O)N[C@@H](Cc2ccccc2)C(N)=O)NC(=O)[C@H](C(C)O)NC1=O (stereo partly drawn) [4-[(2S)-2-{[(1S)-1-{[(6S,9S,12S)-12-{[(1S)-1-carbamoyl-2-phenylethyl]carbamoyl}-9-[(1R)-1-hydroxyethyl]-7,10-dioxo-1,8,11,15,16-pentaazabicyclo[12.2.1]heptadeca-14(17),15-dien-6-yl]carbamoyl}-3-methylbutyl]carbamoyl}-2-acetamidoethyl]phenoxyphosphonic acid] (Ac-[pY]L[Lys(N3)][Thr(3ξ)][Pra]F-NH2; triazole 3-5) | 7.3 |
